Experimental data published in patent US12011438B2, “Composition for protecting cardiomyocyte” (Kyoto University, priority 2018, dated 2024).
Where a name gives a salt, the structure may show the parent alone.

Key:
[1] = system: cardiac ischemia and reperfusion injury model mice; test: Mouse cardiac ischemia and reperfusion injury model (KUS administration prior to ischemia); format: in vivo
Experimental: Eight-week-old C57BL/6J mice were used. Each mouse was anesthetized with intraperitoneally administered pentobarbital (64.8 mg/kg). An endotracheal tube was introduced after the anesthetic induction and positive pressure ventilation was provided.
Each mouse was fixed in a right lateral position, the thoracic cavity was opened through left thoracotomy in the third intercostal space to expose the heart. […] The blockage of the coronary blood flow was confirmed by observing a change in the color of the myocardium. The ischemia was continued for 45 minutes and then reperfusion was induced by removing the PE10 tube. The reperfusion was confirmed by checking restoration of the color of the myocardium. The thoracic cavity was closed with 7-0 prolene sutures and the skin was closed with 4-0 silk sutures. After observing awakening from the anesthesia, the endotracheal tube was removed.
KUS121 dissolved in a physiological saline was injected prior to the ischemia induction. […] First, 2 hours before the reperfusion, i.e., about 1 hour before the start of the ischemia, KUS121 was intraperitoneally administered at the dose of 160 mg/kg. Subsequently, KUS121 was intraperitoneally administered at the dose of 160 mg/kg every 24 hours for 6 days.
Seven days after the surgery, the mice were anesthetized with pentobarbital, perfused with 4% paraformaldehyde (PFA) for fixation, and the hearts were isolated. The isolated hearts were further fixed in 4% PFA overnight. The hearts were embedded in paraffin and sections were prepared. The infarcted regions were evaluated with Masson's trichrome staining. The images were acquired using a microscope (BZ-9000, Keyence) and the infarcted areas were measured using Image J (NIH).
To evaluate the cardiac function, echocardiography (Vevo^(registered trademark) 2100, VISUALSONICS) was performed in the mouse ischemia and reperfusion injury model. […] The left ventricular systolic functions were evaluated by measuring the left ventricular fractional shortening and left ventricular ejection fraction in parasternal short axis views.

[2] = system: H9C2 cells, rat cardiomyoblasts; test: Rat cardiomyoblasts under ER stress with tunicamycin: cell number and ATP level; format: cell-based; conditions: 0.1 pg/mL tunicamycin, 25, 50, 100, or 200 pM KUS121, 24 hours
Experimental: (§1) H9C2 cells, rat cardiomyoblasts, were cultured in Dulbecco's modified Eagle's medium (DMEM) supplemented with 5% fetal bovine serum in the presence of […] tunicamycin (Sigma-Aldrich Co. LLC), which induces ER stress, and 25, 50, 100, or […] KUS121 for 24 hours. The cells were counted by Countess II (Thermo Fisher Scientific). The intracellular ATP levels were measured using “Cell” ATP Assay reagent (TOYO B-Net Co., LTD). The luciferase activities, which indicate ATP levels, were measured with ARVO X3 (PerkinElmer, Inc.).

[3] = system: cardiac ischemia and reperfusion injury model pigs; test: Porcine cardiac ischemia and reperfusion injury model (KUS administration after reperfusion); format: in vivo, Yorkshire pig; conditions: intracoronary injection 0.64, 2.5, or 5.0 mg/kg immediately after reperfusion, seven days after surgery
Experimental: Porcine myocardial infarction model was prepared as in Test 8. The balloon was released 60 minutes after the occlusion, and immediately KUS121 was administered by intracoronary injection at a dose of 0.64, 2.5, or 5.0 mg/kg for 3 minutes. Seven days after the surgery, the infarct size was evaluated by MRI and the infarcted area was determined by histological analysis as in Test 8.

[4] = system: CHOP and Bip, ER stress markers; test: Western blotting of ER stress markers in rat cardiomyoblasts under tunicamycin; format: cell-based; conditions: H9C2 cells, 200 μM KUS121 (FIG. 5)
Experimental: as §1
(§2) The cells cultured as above were subjected to Western blotting. […] After the protein concentrations were measured with BCA protein assay kit (Bio-Rad, 5000006JA), 15 μg of the protein samples were separated in NuPAGE 4-12% Bis-Tris Mini gels (Thermo Fisher Scientific) and transferred to Protran nitrocellulose transfer membrane (Whatman). The membrane was blocked with PBS containing 5% skim milk for 30 minutes, incubated with primary antibodies overnight at 4° C., washed with PBS-0.05% Tween-20 (PBS-T), incubated with secondary antibodies for 1 hour at room temperature, and washed with PBS-T. Pierce Western Blotting Substrate (Thermo Fisher Scientific) or Pierce Western Blotting Substrate plus (Thermo Fisher Scientific) were reacted with the secondary antibodies for producing colors, and the color intensities were measured by LAS-4000 Mini system (Fuji Film). […]

[5] = system: cardiac ischemia and reperfusion injury model pigs; test: Porcine cardiac ischemia and reperfusion injury model (intravenous and intracoronary administration of KUS); format: in vivo, Yorkshire pig
Experimental: Porcine myocardial infarction model was prepared by inserting a catheter into a Yorkshire pig under general anesthesia and occluding the left coronary artery with a balloon. An infusion solution was prepared by dissolving KUS121 (4 mg/kg) in 250 mL of glucose solution and administered by intravenous infusion that started 45 minutes after the occlusion of the coronary artery and continued for 3 hours. The balloon was released 60 minutes after the occlusion, and 10 mL of the infusion solution was infused intracoronarily.
One week after the occlusion, the infarct size was evaluated by late gadolinium enhanced MRI. […] The cardiac function was evaluated by determining left ventricular ejection fraction, end diastolic volume, end systolic volume, cardiac output, and left ventricular mass by MRI. The left ventricular systolic function was improved by KUS121 administration.
After the MRI, the occluded part of the left coronary artery was occluded again with the balloon catheter and 1% Evans blue was injected to the left and right coronary arteries (60 mL for the left coronary artery and 30 mL for the right coronary artery; non-infarct regions were stained blue). Additionally, 30 mL of 1% TTC solution was injected through the guidewire lumen of the occlusion balloon. Euthanasia was then performed by an intravenous injection of potassium chloride. The heart was isolated and 10-mm thick sections were prepared parallel to the atrioventricular groove. The sections were further immersed in 1% TTC solution for 10 minutes at 37° C. (regions not damaged by myocardial infarction were stained red). All sections were weighed and photographed. They were fixed in 10% formaldehyde and used for subsequent histological analysis. […] No difference was found in the area at risk between the […] group and the KUS group, but administration of KUS decreased the infarcted area per area at risk.

[6] = system: CHOP and Bip, ER stress markers; test: Western blotting of ER stress markers in rat cardiomyoblasts in glucose-free medium; format: cell-based; conditions: H9C2 cells, 200 μM KUS121 (FIG. 7)
Experimental: as §1, §2

[7] = system: A team mouse heart ischemia and reperfusion injury model; test: Mouse heart ischemia and reperfusion injury model (ATP visualization mouse); format: in vivo; conditions: A team mice, 160 mg/kg i.p. 2 hours before reperfusion, 45 minutes ischemia
Excerpt: ATP visualization mouse (A team mouse) generated by Dr. Masamichi Yamamoto (Department of Nephrology, Graduate School of Medicine, Kyoto University) was used. In A team mouse fluorescence resonance energy transfer (FRET) from GFP to OFP occurs depending on the intracellular ATP level. The OFP/GFP ratio is proportional to the ATP level.
Anesthesia was induced in each A team mouse with 4% isoflurane and maintained with 2% isoflurane during surgery. An endotracheal tube was introduced after the anesthetic induction and positive pressure ventilation was provided. The lateral thoracic regions and subcostal margins were incised bilaterally and the thoracic cavity was opened to expose the heart. […] The ischemia was continued for 45 minutes and then reperfusion was induced by removing the PE10 tube. KUS121 was intraperitoneally administered at the dose of 160 mg/kg 2 hours before the reperfusion. For measuring the ATP level, fluorescence was excited at 470/40 and detected at 515/30 for GFP and 575/40 for OFP to acquire images. The OFP/GFP ratios were analyzed using MetaMorph (Molecular Devices). The ATP level during ischemia was decreased in the control group, but maintained in the KUS121 group.

[8] = system: cardiac ischemia and reperfusion injury model mice; test: Mouse cardiac ischemia and reperfusion injury model (KUS administration after reperfusion); format: in vivo; conditions: seven days after surgery
Experimental: Mouse myocardial infarction model was prepared as in Test 5.
First, immediately after the reperfusion KUS121 was administered intravenously at the dose of 80 mg/kg and intraperitoneally at the dose of 80 mg/kg. Subsequently, KUS121 was intraperitoneally administered at the dose of 160 mg/kg every 24 hours for 4 days. Seven days after the surgery, histological analysis was performed as in Test 5 to determine the infarcted area.
Immediately after the reperfusion KUS121 was administered intravenously at the dose of 25 mg/kg and intraperitoneally at the dose of 25 mg/kg. Subsequently, KUS121 was not administered. Seven days after the surgery, histological analysis was performed as in Test 5 to determine the infarcted area.
Immediately after the reperfusion KUS121 was administered intravenously at the dose of 8 mg/kg and intraperitoneally at the dose of 8 mg/kg. Subsequently, KUS121 was not administered. Seven days after the surgery, histological analysis was performed as in Test 5 to determine the infarcted area.

[9] = system: H9C2 cells, rat cardiomyoblasts; test: Rat cardiomyoblasts under ER stress by glucose depletion: cell number and ATP level; format: cell-based; conditions: glucose-free medium, 25, 50, 100, or 200 μM KUS121 (FIG. 6)
Experimental: as §1
Similar experiments were performed using the cells cultured in a glucose-free medium. […] The expressions of CHOP and Bip, ER stress markers, were suppressed in the presence of KUS121.

[10] = intravenous infusion plus intracoronary, histological analysis (Evans blue/TTC)

Q: How did the “infarcted area (ratio to left ventricle area)” value ([1]; 160 mg/kg i.p. 2 hours before reperfusion and every 24 hours for 6 days, seven days after surgery, Masson's trichrome) turn out when `Cc1cc(F)ccc1-c1ccc(/N=N/c2cc(S(=O)(=O)O)c3ccccc3c2N)cn1` [KUS121, 4-amino-3-[6-(4-fluoro-2-methylphenyl)pyridine-3-ylazo]naphthalene-1-sulfonic acid sodium salt] was run?
A: smaller in the KUS121 group than in the control group

Q: And the “expression of CHOP in the border zone and non-ischemic zone” value ([1]; 160 mg/kg i.p. prior to ischemia and every 24 hours, Western blotting)?
A: suppressed

Q: And the “left ventricular systolic function (fractional shortening, ejection fraction)” value ([1]; 160 mg/kg i.p. prior to ischemia and every 24 hours, echocardiography)?
A: kept well at almost the same level as that in sham-operated group

Q: And the ATP level [2]?
A: increased depending on the dose

Q: And the cell number [2]?
A: increased depending on the dose

Q: What about the “ratio of infarcted area/left ventricle (LV) area evaluated by MRI” value [3] of the same molecule?
A: decreased in the KUS121 group in a dose-dependent manner

Q: What about the “ratio of infarcted area/AAR” value ([3]; histological analysis) of the same molecule?
A: decreased in the KUS121 group in a dose-dependent manner

Q: What about the “ratio of infarcted area/area at risk (AAR) (first mention)” value ([3]; versus control group) of the same molecule?
A: comparable with that of the control group

Q: What about the “expression of Bip” value [4] of the same molecule?
A: suppressed

Q: And the “expression of CHOP” value [4]?
A: suppressed

Q: And the “left ventricular systolic function” value ([5]; 4 mg/kg intravenous infusion for 3 hours plus intracoronary infusion after reperfusion, MRI one week after occlusion)?
A: improved

Q: And the “area at risk relative to the left ventricle” value [5, 10]?
A: No difference

Q: And the “infarcted area per area at risk” value [5, 10]?
A: decreased

Q: What about the “expression of Bip” value [6] of the same molecule?
A: suppressed

Q: And the “expression of CHOP” value [6]?
A: suppressed

Q: And the “ATP level during ischemia (OFP/GFP ratio)” value [7]?
A: maintained

Q: And the “infarcted area (ratio to left ventricle area)” value ([8]; (1) 160 mg/kg: 80 mg/kg i.v. + 80 mg/kg i.p. immediately after reperfusion, then 160 mg/kg i.p. every 24 hours for 4 days)?
A: smaller in the KUS121 group than in the control group

Q: What about the “infarcted area (ratio to left ventricle area)” value ([8]; (2) 50 mg/kg: 25 mg/kg i.v. + 25 mg/kg i.p. immediately after reperfusion only) of the same molecule?
A: smaller in the KUS121 group than in the control group

Q: What about the “infarcted area (ratio to left ventricle area)” value ([8]; (3) 16 mg/kg: 8 mg/kg i.v. + 8 mg/kg i.p. immediately after reperfusion only) of the same molecule?
A: No significant difference

Q: What about the ATP level [9] of the same molecule?
A: increased depending on the dose

Q: And the cell number [9]?
A: increased depending on the dose
